Values of other authors in EP1156371A2, “Replenishing method of planographic printing plate developer” (FUJI PHOTO FILM CO., LTD., priority 2000, dated 2001).

Details: dissociation constant of weak acid, aqueous solution

| Compound | pKa |
| --- | --- |
| CC(P(=O)(O)O)P(=O)(O)O [1,1-ethylidene diphosphonic acid] | 11.54 |
| Oc1ccc(O)c(O)c1 [1,2,4-trihydroxybenzene] | 11.82 |
| CC(O)(P(=O)(O)O)P(=O)(O)O [1-hydroxy 1-ethylidene diphosphonate] | 11.52 |
| OCC(F)(F)C(F)F [2,2,3,3-tetrafluoropropanol-1] | 12.74 |
| CCC(C)=NO [2-butanone oxime] | 12.45 |
| ON=Cc1ccccc1O [2-hydroxybenzaldehyde oxime] | 12.10 |
| O=C(O)c1ccc(O)c(O)c1 [3,4-duhydroxybenzoic acid] | 11.94 |
| O=C(O)c1cc2ccccc2cc1O [3-hydroxy-2-naphthoic acid] | 12.84 |
| CC(=NO)c1ccccc1 [acetophenone oxime] | 11.35 |
| CC(C)=NO [acetoxime] | 12.42 |
| Nc1ncnc2c1ncn2[C@@H]1O[C@H](CO)[C@@H](O)[C@H]1O [adenosine] | 12.56 |
| O=C1CC(=O)NC(=O)N1 [barbituric acid] | 12.5 |
| c1ccc2[nH]cnc2c1 [benzimidazole] | 12.86 |
| Oc1ccccc1O [catechol] | 12.6 |
| CC(=NO)C(C)=NO [dimethyl glyoxime] | 11.9 |
| NC(=N\O)/C(N)=N/O [ethanediamide dioxime] | 11.37 |
| Oc1ccc(O)cc1 [hydroquinone] | 11.56 |
| OC[C@H]1O[C@@H](n2cnc3c(O)ncnc32)[C@H](O)[C@@H]1O [inosine] | 12.5 |
| CC(C)(P(=O)(O)O)P(=O)(O)O [isopropylidene diphopshonic acid] | 12.10 |
| Cc1cccc(O)c1 [m-cresol] | 10.09 |
| Cc1ccccc1O [o-cresol] | 10.33 |
| O=Cc1ccccn1 [pyridine-2-aldehyde] | 12.68 |
| O=Cc1ccncc1 [pyridine-4-aldehyde] | 12.05 |
| Oc1cccc(O)c1O [pyrogallol] | 11.34 |
| Oc1cccc(O)c1 [resorcinol] | 11.27 |
| O=C(O)c1cc(S(=O)(=O)O)ccc1O [sulfosalicylic acid] | 11.7 |
| NC(=S)c1ccccc1 [thiobenzamide] | 12.8 |
| picoline thioamide | 12.55 |
